Experiment [1] deals with GDP-bound NRAS wild-type protein (Homo sapiens, UniProt P01111). Put plainly: Binding to NRAS by surface plasmon resonance (SPR), Single Cycle Kinetics. To be noted: SPR; KD ratio class.
Experiment [2] concerns the target GDP-bound HRAS wild-type protein (Homo sapiens, UniProt P01112). Put plainly: Binding to HRAS by surface plasmon resonance (SPR), Single Cycle Kinetics. To be noted: SPR; KD ratio class.
The subject of experiment [3] is human lung cancer strain NCI-H441. Put plainly: cells. The following applies: NCI-H441, 96 h, read-out: NCI-H441 IC50 (nM).

GDP-bound HRAS wild-type protein, sequence (P01112 whole entry): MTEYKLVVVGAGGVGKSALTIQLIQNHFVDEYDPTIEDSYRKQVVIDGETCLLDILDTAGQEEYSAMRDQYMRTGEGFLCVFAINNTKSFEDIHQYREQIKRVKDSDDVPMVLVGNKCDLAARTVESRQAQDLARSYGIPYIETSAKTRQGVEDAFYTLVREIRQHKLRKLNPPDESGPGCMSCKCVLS
GDP-bound NRAS wild-type protein, sequence (P01111 whole entry): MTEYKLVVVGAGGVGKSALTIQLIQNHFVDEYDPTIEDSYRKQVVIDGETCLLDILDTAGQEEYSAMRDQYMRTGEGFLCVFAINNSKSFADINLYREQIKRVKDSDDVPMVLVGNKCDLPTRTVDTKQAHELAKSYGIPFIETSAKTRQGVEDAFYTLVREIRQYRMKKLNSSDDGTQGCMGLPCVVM

Consider `CCO[C@@H]1C[C@H]2C(=O)NC3(CCC3)C(=O)N(C)[C@@H](C3CCCC3)C(=O)N(C)[C@H](C(=O)N3CCOCC3)CC(=O)N(C)[C@@H](CC)C(=O)N[C@@H]([C@@H](C)CC)C(=O)N3CC[C@H]3C(=O)N(C)[C@H]3CC[C@@H](C)CN(C3=O)[C@@H](Cc3ccc(C(F)(F)F)cc3)C(=O)N(C)CC(=O)N[C@@H](CCc3cc(F)c(C(F)(F)F)c(F)c3)C(=O)N2C1` [PP1369], for which the “NRAS/KRAS (ratio of KD value for GDP-bound NRAS wild-type protein to KD value for KRAS)” value in experiment [1] was “B (a compound having 3 or more and less than 10 is denoted as B)”. In experiment [2], the “HRAS/KRAS (ratio of KD value for GDP-bound HRAS wild-type protein to KD value for KRAS)” value was “B (a compound having 3 or more and less than 10 is denoted as B)”. Moreover, in experiment [3], the IC50 stood at 13.4 nM.
With `CCO[C@@H]1C[C@H]2C(=O)NC3(CCCC3)C(=O)N(C)[C@@H](C3CCCC3)C(=O)N(C)[C@H](C(=O)N(C)C)CC(=O)N(C)[C@@H](CC)C(=O)N[C@@H]([C@@H](C)CC)C(=O)N(C)CC(=O)N(C)[C@H]3CC[C@@H](C)CN(C3=O)[C@@H](Cc3ccc(C(F)(F)F)cc3)C(=O)N(C)CC(=O)N[C@@H](CCc3cc(F)c(C(F)(F)F)c(F)c3)C(=O)N2C1` [PP1370], the “NRAS/KRAS (ratio of KD value for GDP-bound NRAS wild-type protein to KD value for KRAS)” value in experiment [1] was “C (A compound having a KD ratio of 0.1 or more and less than 3 is denoted as C)”. For the same compound, the “HRAS/KRAS (ratio of KD value for GDP-bound HRAS wild-type protein to KD value for KRAS)” value in experiment [2] is “C (A compound having a KD ratio of 0.1 or more and less than 3 is denoted as C)”. The IC50 in experiment [3] stood at 2.3 nM.
With `CCO[C@@H]1C[C@H]2C(=O)NC3(CCCC3)C(=O)N(C)[C@@H](C3CCCC3)C(=O)N(C)[C@H](C(=O)N3CCOCC3)CC(=O)N(C)[C@@H](CC)C(=O)N[C@@H]([C@@H](C)CC)C(=O)N(C)CC(=O)N(C)[C@H]3CC[C@@H](C)CN(C3=O)[C@@H](Cc3ccc(C(F)(F)F)cc3)C(=O)N(C)CC(=O)N[C@@H](CCc3cc(F)c(C(F)(F)F)c(F)c3)C(=O)N2C1` [PP1371], the “NRAS/KRAS (ratio of KD value for GDP-bound NRAS wild-type protein to KD value for KRAS)” value in experiment [1] is “A (a compound having 10 or more and less than 20 is denoted as A)”. Also, the “HRAS/KRAS (ratio of KD value for GDP-bound HRAS wild-type protein to KD value for KRAS)” value in experiment [2] was “B (a compound having 3 or more and less than 10 is denoted as B)”. The IC50 in experiment [3] was 5.1 nM.
Take `CCO[C@@H]1C[C@H]2C(=O)NC3(CCC3)C(=O)N(C)[C@@H](C3CCCC3)C(=O)N(C)[C@H](C(=O)N3CCOCC3)CC(=O)N(C)[C@@H](CC)C(=O)N[C@@H]([C@@H](C)CC)C(=O)N(C)CC(=O)N(C)[C@H]3CC[C@@H](C)CN(C3=O)[C@@H](Cc3ccc(C(F)(F)F)cc3)C(=O)N(C)CC(=O)N[C@@H](CCc3cc(F)c(C(F)(F)F)c(F)c3)C(=O)N2C1` [PP1372]: the “NRAS/KRAS (ratio of KD value for GDP-bound NRAS wild-type protein to KD value for KRAS)” value in experiment [1] is “B (a compound having 3 or more and less than 10 is denoted as B)”. Also, the “HRAS/KRAS (ratio of KD value for GDP-bound HRAS wild-type protein to KD value for KRAS)” value in experiment [2] was “B (a compound having 3 or more and less than 10 is denoted as B)”. Moreover, the IC50 in experiment [3] came out at 5 nM.
Regarding `CCO[C@@H]1C[C@H]2C(=O)NC3(CCC3)C(=O)N(C)[C@@H](C3CCCC3)C(=O)N(C)[C@H](C(=O)N3CCOCC3)CC(=O)N(C)[C@@H](CC(C)C)C(=O)N[C@@H]([C@@H](C)CC)C(=O)N3CC[C@H]3C(=O)N(C)[C@H]3CC[C@@H](C)CN(C3=O)[C@@H](Cc3ccc(C(F)(F)F)cc3)C(=O)N(C)CC(=O)N[C@@H](CCc3cc(F)c(C(F)(F)F)c(F)c3)C(=O)N2C1` [PP1373], the “NRAS/KRAS (ratio of KD value for GDP-bound NRAS wild-type protein to KD value for KRAS)” value in experiment [1] was “B (a compound having 3 or more and less than 10 is denoted as B)”. In experiment [2], the “HRAS/KRAS (ratio of KD value for GDP-bound HRAS wild-type protein to KD value for KRAS)” value was “B (a compound having 3 or more and less than 10 is denoted as B)”. Also, the IC50 in experiment [3] worked out at 12.2 nM.
Regarding `CCO[C@@H]1C[C@H]2C(=O)NC3(CCC3)C(=O)N(C)[C@@H](C3CCCC3)C(=O)N(C)[C@H](C(=O)N3CCOCC3)CC(=O)N(C)[C@@H](CC)C(=O)N[C@@H]([C@@H](C)CC)C(=O)N3CC[C@H]3C(=O)N(C)[C@H]3CC[C@@H](C)CN(C3=O)[C@@H](Cc3ccc(C(F)(F)F)cc3)C(=O)N(C)CC(=O)N[C@@H](CCc3ccc(C(F)(F)F)c(Cl)c3)C(=O)N2C1` [PP1375], in experiment [1], the “NRAS/KRAS (ratio of KD value for GDP-bound NRAS wild-type protein to KD value for KRAS)” value was “B (a compound having 3 or more and less than 10 is denoted as B)”. In addition, in experiment [2], the “HRAS/KRAS (ratio of KD value for GDP-bound HRAS wild-type protein to KD value for KRAS)” value was “B (a compound having 3 or more and less than 10 is denoted as B)”. Also, the IC50 in experiment [3] worked out at 11.5 nM.
For `CCO[C@@H]1C[C@H]2C(=O)NC3(CCCC3)C(=O)N(C)[C@@H](C3CCCC3)C(=O)N(C)[C@H](C(=O)N(C)C)CC(=O)N(C)[C@@H](CC)C(=O)N[C@@H]([C@@H](C)CC)C(=O)N(C)CC(=O)N(C)[C@H]3CC[C@@H](C)CN(C3=O)[C@@H](Cc3ccc(C(F)(F)F)cc3)C(=O)N(C)CC(=O)N[C@@H](CCc3ccc(C(F)(F)F)c(Cl)c3)C(=O)N2C1` [PP1376], the “NRAS/KRAS (ratio of KD value for GDP-bound NRAS wild-type protein to KD value for KRAS)” value in experiment [1] was “B (a compound having 3 or more and less than 10 is denoted as B)”. Besides, the “HRAS/KRAS (ratio of KD value for GDP-bound HRAS wild-type protein to KD value for KRAS)” value in experiment [2] was “B (a compound having 3 or more and less than 10 is denoted as B)”. Moreover, in experiment [3], the IC50 is 3.5 nM.
For the compound `CCO[C@@H]1C[C@H]2C(=O)NC3(CCCC3)C(=O)N(C)[C@@H](C3CCCC3)C(=O)N(C)[C@H](C(=O)N3CCOCC3)CC(=O)N(C)[C@@H](CC)C(=O)N[C@@H]([C@@H](C)CC)C(=O)N(C)CC(=O)N(C)[C@H]3CC[C@@H](C)CN(C3=O)[C@@H](Cc3ccc(C(F)(F)F)cc3)C(=O)N(C)CC(=O)N[C@@H](CCc3ccc(C(F)(F)F)c(Cl)c3)C(=O)N2C1` [PP1377], the “NRAS/KRAS (ratio of KD value for GDP-bound NRAS wild-type protein to KD value for KRAS)” value in experiment [1] was “B (a compound having 3 or more and less than 10 is denoted as B)”. In experiment [2], the “HRAS/KRAS (ratio of KD value for GDP-bound HRAS wild-type protein to KD value for KRAS)” value is “B (a compound having 3 or more and less than 10 is denoted as B)”. The IC50 in experiment [3] worked out at 5.8 nM.
Take `CCO[C@@H]1C[C@H]2C(=O)NC3(CCC3)C(=O)N(C)[C@@H](C3CCCC3)C(=O)N(C)[C@H](C(=O)N3CCOCC3)CC(=O)N(C)[C@@H](CC)C(=O)N[C@@H]([C@@H](C)CC)C(=O)N(C)CC(=O)N(C)[C@H]3CC[C@@H](C)CN(C3=O)[C@@H](Cc3ccc(C(F)(F)F)cc3)C(=O)N(C)CC(=O)N[C@@H](CCc3ccc(C(F)(F)F)c(Cl)c3)C(=O)N2C1` [PP1378]: the “NRAS/KRAS (ratio of KD value for GDP-bound NRAS wild-type protein to KD value for KRAS)” value in experiment [1] is “B (a compound having 3 or more and less than 10 is denoted as B)”. In addition, the “HRAS/KRAS (ratio of KD value for GDP-bound HRAS wild-type protein to KD value for KRAS)” value in experiment [2] was “C (A compound having a KD ratio of 0.1 or more and less than 3 is denoted as C)”. In addition, in experiment [3], the IC50 was found to be 6.6 nM.
For `CCO[C@@H]1C[C@H]2C(=O)NC3(CCC3)C(=O)N(C)[C@@H](C3CCCC3)C(=O)N(C)[C@H](C(=O)N3CCOCC3)CC(=O)N(C)[C@@H](CC(C)C)C(=O)N[C@@H]([C@@H](C)CC)C(=O)N3CC[C@H]3C(=O)N(C)[C@H]3CC[C@@H](C)CN(C3=O)[C@@H](Cc3ccc(C(F)(F)F)cc3)C(=O)N(C)CC(=O)N[C@@H](CCc3ccc(C(F)(F)F)c(Cl)c3)C(=O)N2C1` [PP1379], in experiment [1], the “NRAS/KRAS (ratio of KD value for GDP-bound NRAS wild-type protein to KD value for KRAS)” value is “A (a compound having 10 or more and less than 20 is denoted as A)”. Further, the “HRAS/KRAS (ratio of KD value for GDP-bound HRAS wild-type protein to KD value for KRAS)” value in experiment [2] is “B (a compound having 3 or more and less than 10 is denoted as B)”. Further, the IC50 in experiment [3] was 10.3 nM.
On to `CC[C@H](C)[C@@H]1NC(=O)[C@H](CC)N(C)C(=O)C[C@@H](C(=O)N(C)C)N(C)C(=O)[C@H](C2CCCC2)N(C)C(=O)C2(CCCC2)NC(=O)[C@@H]2CCCN2C(=O)[C@H](CCc2cc(F)c(C(F)(F)F)c(F)c2)NC(=O)CN(C)C(=O)[C@H](Cc2ccc(C(F)(F)F)cc2)N2C[C@H](C)CC[C@@H](C2=O)N(C)C(=O)CN(C)C1=O` [PP1382], for which the “NRAS/KRAS (ratio of KD value for GDP-bound NRAS wild-type protein to KD value for KRAS)” value in experiment [1] is “B (a compound having 3 or more and less than 10 is denoted as B)”. In addition, the “HRAS/KRAS (ratio of KD value for GDP-bound HRAS wild-type protein to KD value for KRAS)” value in experiment [2] is “B (a compound having 3 or more and less than 10 is denoted as B)”. For the same compound, in experiment [3], the IC50 was 15.8 nM.
Consider `CC[C@H](C)[C@@H]1NC(=O)[C@H](CC)N(C)C(=O)C[C@@H](C(=O)N2CCOCC2)N(C)C(=O)[C@H](C2CCCC2)N(C)C(=O)C2(CCCC2)NC(=O)[C@@H]2CCCN2C(=O)[C@H](CCc2cc(F)c(C(F)(F)F)c(F)c2)NC(=O)CN(C)C(=O)[C@H](Cc2ccc(C(F)(F)F)cc2)N2C[C@H](C)CC[C@@H](C2=O)N(C)C(=O)CN(C)C1=O` [PP1383], for which the “NRAS/KRAS (ratio of KD value for GDP-bound NRAS wild-type protein to KD value for KRAS)” value in experiment [1] is “B (a compound having 3 or more and less than 10 is denoted as B)”. In addition, the “HRAS/KRAS (ratio of KD value for GDP-bound HRAS wild-type protein to KD value for KRAS)” value in experiment [2] is “B (a compound having 3 or more and less than 10 is denoted as B)”. In addition, the IC50 in experiment [3] amounted to 11.2 nM.
Consider `CC[C@H](C)[C@@H]1NC(=O)[C@H](CC)N(C)C(=O)C[C@@H](C(=O)N2CCOCC2)N(C)C(=O)[C@H](C2CCCC2)N(C)C(=O)C2(CCC2)NC(=O)[C@@H]2CCCN2C(=O)[C@H](CCc2cc(F)c(C(F)(F)F)c(F)c2)NC(=O)CN(C)C(=O)[C@H](Cc2ccc(C(F)(F)F)cc2)N2C[C@H](C)CC[C@@H](C2=O)N(C)C(=O)CN(C)C1=O` [PP1384], for which the “NRAS/KRAS (ratio of KD value for GDP-bound NRAS wild-type protein to KD value for KRAS)” value in experiment [1] is “A (a compound having 10 or more and less than 20 is denoted as A)”. Also, the “HRAS/KRAS (ratio of KD value for GDP-bound HRAS wild-type protein to KD value for KRAS)” value in experiment [2] was “B (a compound having 3 or more and less than 10 is denoted as B)”. Further, in experiment [3], the IC50 stood at 13.5 nM.
Regarding `CC[C@H](C)[C@@H]1NC(=O)[C@H](CC2CCC2)N(C)C(=O)C[C@@H](C(=O)N(C)C)N(C)C(=O)[C@H](C2CCCC2)N(C)C(=O)C2(CCCC2)NC(=O)[C@@H]2CCCN2C(=O)[C@H](CCc2cc(F)c(C(F)(F)F)c(F)c2)NC(=O)CN(C)C(=O)[C@H](Cc2ccc(C(F)(F)F)cc2)N2C[C@H](C)CC[C@@H](C2=O)N(C)C(=O)CN(C)C1=O` [PP1386], the “NRAS/KRAS (ratio of KD value for GDP-bound NRAS wild-type protein to KD value for KRAS)” value in experiment [1] was “B (a compound having 3 or more and less than 10 is denoted as B)”. Besides, the “HRAS/KRAS (ratio of KD value for GDP-bound HRAS wild-type protein to KD value for KRAS)” value in experiment [2] is “B (a compound having 3 or more and less than 10 is denoted as B)”. Also, in experiment [3], the IC50 stood at 4.2 nM.
